Assay results published in US20080021217A1, “HETEROCYCLIC INHIBITORS OF RHO KINASE” (priority 2006, published 2008).

How the values were obtained:
[1] = molecular target: T1, recombinant N-terminal GST-tagged human Rho kinase 2 (ROCK2, amino acids 1-552) (Homo sapiens, UniProt O75116); experiment: In vitro Rho kinase assay (luciferase-based ATP consumption), ROCK2; assay type: biochemical
T1 construct: ROCK2, amino acids 1-552, Invitrogen Inc., cat #PV3759; GST (N); purchased Invitrogen Inc. PV3759
Procedure: (§1) Rho kinase biochemical assays described below depend on firefly luciferase-based, indirect measurement of total ATP consumption by the kinase following incubation with substrate and ATP. 25 μl of Rho kinase assay buffer (20 mM Tris-HCL [pH 7.5], 1 mM MgCl2, 0.4 mM CaCl2, 0.15 mM EGTA, 0.1 mg/ml bovine serum albumin) containing 0.82 μg/ml of recombinant N-terminal GST-tagged human Rho kinase 1 (ROCK1, amino acids 1-535, Invitrogen Inc., cat. #PV-3691) or recombinant N-terminal GST-tagged human Rho kinase 2 (ROCK2, amino acids 1-552, Invitrogen Inc., cat #PV3759), 100 μg/ml S6 peptide substrate (related to amino acids 218-249 of the human 40S ribosomal protein S6, and suitable for ROCK1 or ROCK2, e.g. Upstate/Millipore Inc., cat #12-420), and 3 µM ATP are dispensed to wells of a 384 multi-well opaque plate. The plate is centrifuged for 30 seconds at approximately 200×g. 240 nl of test compound in DMSO is dispensed to each well by passive pin transfer. The lag phase of this in vitro kinase reaction permits addition of compounds soon after the reaction initiates. The reaction is allowed to incubate at 30° C. for 2 hours. The assay plates are sealed and maintained in a humidified environment. After 2 hours, 25 μl of easyLite protein kinase assay reagent (Perkin-Elmer, Inc.) is dispensed. After an additional 10 minute incubation at room temperature (about 22° C.), luminescence activity is measured on a Molecular Devices Analyst multi-mode plate reader or other suitable plate reader. Kinase inhibition results in less ATP consumption, and therefore increased luminescence signal. Negative control activity is measured with DMSO lacking any test compound. The positive control is 2-methyl-1-(4-methylisoquinolin-5-ylsulfonyl)perhydro-1,4-diazepine hydrochloride (aka H-1152P, HCl salt). Efficacy is measured as a percentage of positive control activity. […] In some cases, kinase reactions and compound testing are performed in 1536 multi-well plates under similar conditions, with assay volumes appropriately scaled. The designated NT means the cited example was not tested.

[2] = molecular target: T2, recombinant N-terminal GST-tagged human Rho kinase 1 (ROCK1, amino acids 1-535) (Homo sapiens, UniProt Q13464); experiment: In vitro Rho kinase assay (luciferase-based ATP consumption), ROCK1; assay type: biochemical
T2 construct: ROCK1, amino acids 1-535, Invitrogen Inc., cat. #PV-3691; GST (N); purchased Invitrogen Inc. PV-3691
Procedure: as §1

T1 sequence (O75116 1-552): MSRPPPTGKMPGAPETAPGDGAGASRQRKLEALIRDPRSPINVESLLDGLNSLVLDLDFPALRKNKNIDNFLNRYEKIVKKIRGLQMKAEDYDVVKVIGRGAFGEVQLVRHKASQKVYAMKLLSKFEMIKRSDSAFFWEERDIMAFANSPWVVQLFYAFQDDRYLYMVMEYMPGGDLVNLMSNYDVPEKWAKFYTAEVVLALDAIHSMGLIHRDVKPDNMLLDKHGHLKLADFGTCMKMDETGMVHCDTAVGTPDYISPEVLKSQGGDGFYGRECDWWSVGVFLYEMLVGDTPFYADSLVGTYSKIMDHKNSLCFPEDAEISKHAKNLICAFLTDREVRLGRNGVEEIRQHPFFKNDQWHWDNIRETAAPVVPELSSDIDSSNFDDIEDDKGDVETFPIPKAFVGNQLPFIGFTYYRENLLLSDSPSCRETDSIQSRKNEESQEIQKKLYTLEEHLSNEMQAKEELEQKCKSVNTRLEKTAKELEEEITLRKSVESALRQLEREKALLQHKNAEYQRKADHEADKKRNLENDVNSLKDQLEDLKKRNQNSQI
T2 sequence (Q13464 1-535): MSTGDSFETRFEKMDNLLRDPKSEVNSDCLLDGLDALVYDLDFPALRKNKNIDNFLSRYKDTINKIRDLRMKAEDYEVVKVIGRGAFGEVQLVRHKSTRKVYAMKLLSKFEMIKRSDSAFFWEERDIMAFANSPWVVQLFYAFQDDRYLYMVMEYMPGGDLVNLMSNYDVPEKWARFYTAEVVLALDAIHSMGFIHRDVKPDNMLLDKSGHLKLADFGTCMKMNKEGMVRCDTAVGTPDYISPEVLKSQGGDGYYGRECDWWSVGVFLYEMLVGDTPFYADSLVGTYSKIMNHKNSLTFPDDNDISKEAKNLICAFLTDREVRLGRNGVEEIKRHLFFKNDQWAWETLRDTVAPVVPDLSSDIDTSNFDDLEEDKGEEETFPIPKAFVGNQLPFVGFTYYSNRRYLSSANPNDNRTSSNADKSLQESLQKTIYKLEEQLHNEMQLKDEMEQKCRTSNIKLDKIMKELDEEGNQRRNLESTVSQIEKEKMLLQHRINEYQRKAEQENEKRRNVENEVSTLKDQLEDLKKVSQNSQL

| SMILES | IC50 [1] [µM] | IC50 [2] [µM] |
| --- | --- | --- |
| O=S(=O)(NCc1nc(-c2ccncc2)n[nH]1)c1ccc(OCc2ccccc2)cc1 [Example 54, 4-(Benzyloxy)-N-((3-(pyridin-4-yl)-1H-1,2,4-triazol-5-yl)methyl)benzenesulfonamide] | > 5 | > 5 |
| Cc1c(O)ccc(C(=O)NCc2nc(-c3ccncc3)n[nH]2)c1O [Example 46, 2,4-Dihydroxy-3-methyl-N-((3-(pyridin-4-yl)-1H-1,2,4-triazol-5-yl)methyl)benzamide] | < 5 | < 5 |
| O=C(NCc1nc(-c2ccncc2)no1)c1cccs1 [Example 2, N-((3-(pyridin-4-yl)-1,2,4-oxadiazol-5-yl)methyl)thiophene-2-carboxamide] | > 5 | > 5 |
| Cc1cccc(C(=O)NCc2c[nH]c(-c3ccncc3)n2)c1O [Example 13, 2-hydroxy-3-methyl-N-((2-(pyridin-4-yl)-1H-imidazol-4-yl)methyl)benzamide] | > 5 | > 5 |
| O=S(=O)(NCc1nc(-c2ccncc2)n[nH]1)c1ccc(O)cc1 [Example 55, 4-Hydroxy-N-((3-(pyridin-4-yl)-1H-1,2,4-triazol-5-yl)methyl)benzenesulfonamide] | > 5 | > 5 |
| O=C(NCc1nc(-c2ccncc2)c[nH]1)c1cccs1 [Example 5, N-((4-(pyridin-4-yl)-1H-imidazol-2-yl)methyl)thiophene-2-carboxamide] | < 5 | < 5 |
| COc1ccc(C(=O)NCc2nc(-c3ccncc3)no2)cc1 [Example 4, 4-methoxy-N-((3-(pyridin-4-yl)-1,2,4-oxadiazol-5-yl)methyl)benzamide] | > 5 | > 5 |
| O=C(NCc1nc(-c2ccncc2)n[nH]1)c1nccs1 [Example 20, N-((3-(pyridin-4-yl)-1H-1,2,4-triazol-5-yl)methyl) thiazole-2-carboxamide] | < 5 | < 5 |
| Cc1c(Cl)ccc(S(=O)(=O)NCc2nc(-c3ccncc3)n[nH]2)c1O [Example 32, 4-Chloro-2-hydroxy-3-methyl-N-((3-(pyridin-4-yl)-1H-1,2,4-triazol-5-yl)methyl)benzenesulfonamide] | > 5 | > 5 |
| CS(=O)(=O)Nc1cccc(C(=O)NCc2nc(-c3c[nH]c4ncccc34)cs2)c1 [Example 73, N-((4-(1H-pyrrolo[2,3-b]pyridin-3-yl)thiazol-2-yl)methyl)-3-(methylsulfonamido)benzamide] | < 5 | < 5 |
| Oc1ccc(C(O)CCc2nc(-c3ccncc3)n[nH]2)cc1 (stereo not drawn) [Example 64, 4-(1-hydroxy-3-(3-(pyridin-4-yl)-1H-1,2,4-triazol-5-yl)propyl)phenol] | > 5 | > 5 |
| CC(C)(C)OC(=O)NCC[C@H](NC(=O)c1ccc(O)cc1O)c1nc(-c2ccncc2)n[nH]1 [Example 77, (S)-tert-Butyl 3-(2,4-dihydroxybenzamido)-3-(3-(pyridin-4-yl)-1H-1,2,4-triazol-5-yl)propylcarbamate] | < 5 | < 5 |
| O=C(NCc1nc(-c2ccncc2)co1)c1ccc(O)cc1O [Example 8, 2,4-dihydroxy-N-((4-(pyridin-4-yl)oxazol-2-yl)methyl)benzamide] | < 5 | < 5 |
| CN(Cc1nc(-c2ccncc2)n[nH]1)C(=O)c1cccs1 [Example 57, N-Methyl-N-((3-(pyridin-4-yl)-1H-1,2,4-triazol-5-yl)methyl)thiophene-2-carboxamide] | > 5 | > 5 |
| O=C(NCc1nnc(-c2ccnc3[nH]ccc23)o1)c1ccc(O)cc1O [Example 76, N-((5-(1H-Pyrrolo[2,3-b]pyridin-4-yl)-1,3,4-oxadiazol-2-yl)methyl)-2,4-dihydroxybenzamide] | < 5 | < 5 |
| CN(Cc1nc(-c2ccncc2)n[nH]1)C(=O)c1ccc(O)cc1O [Example 58, 2,4-Dihydroxy-N-methyl-N-((3-(pyridin-4-yl)-1H-1,2,4-triazol-5-yl)methyl)benzamide] | > 5 | > 5 |
| Cn1nc(-c2ccncc2)nc1CNC(=O)c1cccs1 [Example 50, N-((1-Methyl-3-(pyridin-4-yl)-1H-1,2,4-triazol-5-yl)methyl)thiophene-2-carboxamide] | > 5 | > 5 |
| O=C(NCc1nc(-c2c[nH]c3ncccc23)cs1)c1cccs1 [Example 75, N-((4-(1H-pyrrolo [2,3-b]pyridin-3-yl)thiazol-2-yl)methyl)thiophene-2-carboxamide] | < 5 | < 5 |
| c1ccc2c(NCc3nc(-c4ccncc4)n[nH]3)ncnc2c1 [Example 53, N-((3-(Pyridin-4-yl)-1H-1,2,4-triazol-5-yl)methyl)quinazolin-4-amine] | > 5 | > 5 |

Further lines, results first:

| IC50 [1] [µM] | IC50 [2] [µM] | SMILES |
| --- | --- | --- |
| < 5 | > 5 | O=C(NCc1nc(-c2ccncc2)n[nH]1)c1n[nH]c2ccccc12 [Example 33, N-((3-(Pyridin-4-yl)-1H-1,2,4-triazol-5-yl)methyl)-1H-indazole-3-carboxamide] |
| < 5 | < 5 | CCc1cccc(C(=O)NCc2nc(-c3ccncc3)n[nH]2)c1O [Example 52, 3-Ethyl-2-hydroxy-N-((3-(pyridin-4-yl)-1H-1,2,4-triazol-5-yl)methyl)benzamide] |
| > 5 | > 5 | COc1ccc(C(=O)NCc2nc(-c3ccncc3)n[nH]2)cc1C [Example 40, 4-Methoxy-3-methyl-N-((3-(pyridin-4-yl)-1H-1,2,4-triazol-5-yl)methyl)benzamide] |
| > 5 | > 5 | COc1cccc(C(=O)NCc2nc(-c3ccncc3)no2)c1 [Example 3, 3-methoxy-N-((3-(pyridin-4-yl)-1,2,4-oxadiazol-5-yl)methyl)benzamide] |
| > 5 | > 5 | CC(C)(C)C(=O)Oc1ccc(C(=O)NCc2nc(-c3ccncc3)n[nH]2)cc1 [Example 38, 4-((3-(Pyridin-4-yl)-1H-1,2,4-triazol-5-yl)methylcarbamoyl)phenyl pivalate] |
| < 5 | < 5 | Cc1ccc(C(=O)NCc2nc(-c3ccncc3)n[nH]2)c(O)c1 [Example 27, 2-hydroxy-4-methyl-N-((3-(pyridin-4-yl)-1H-1,2,4-triazol-5-yl)methyl) benzamide] |
| < 5 | < 5 | O=C(NCc1nc(-c2ccncc2)n[nH]1)c1cccs1 [Example 16, N-((3-(pyridin-4-yl)-1H-1,2,4-triazol-5-yl)methyl)thiophene-2-carboxamide] |
| < 5 | < 5 | Cc1ccc(C(=O)NCc2nc(-c3ccncc3)n[nH]2)s1 [Example 49, 5-Methyl-N-((3-(pyridin-4-yl)-1H-1,2,4-triazol-5-yl)methyl)thiophene-2-carboxamide] |
| < 5 | < 5 | CC(C)c1cccc(C(=O)NCc2nc(-c3ccncc3)n[nH]2)c1O [Example 41, 2-Hydroxy-3-isopropyl-N-((3-(pyridin-4-yl)-1H-1,2,4-triazol-5-yl)methyl)benzamide] |
| > 5 | > 5 | COc1cccc(C(=O)NCc2nc(-c3ccncc3)n[nH]2)c1 [Example 18, 3-methoxy-N-((3-(pyridin-4-yl)-1H-1,2,4-triazol-5-yl)methyl)benzamide] |
| < 5 | < 5 | O=C(NCc1nc(-c2ccncc2)n[nH]1)c1cccc(Cl)c1O [Example 26, 3-chloro-2-hydroxy-N-((3-(pyridin-4-yl)-1H-1,2,4-triazol-5-yl)methyl)benzamide] |
| < 5 | < 5 | Cc1cc(C(=O)NCc2nc(-c3ccncc3)n[nH]2)ccc1O [Example 45, 4-Hydroxy-3-methyl-N-((3-(pyridin-4-yl)-1H-1,2,4-triazol-5-yl)methyl)benzamide] |
| < 5 | < 5 | COc1cccc(O)c1C(=O)NCc1nc(-c2ccncc2)n[nH]1 [Example 23, 2-hydroxy-6-methoxy-N-((3-(pyridin-4-yl)-1H-1,2,4-triazol-5-yl)methyl)benzamide] |
| > 5 | > 5 | CS(=O)(=O)Nc1cccc(C(=O)NCc2nc(-c3ccncc3)n[nH]2)c1 [Example 21, 3-(methylsulfonamido)-N-((3-(pyridin-4-yl)-1H-1,2,4-triazol-5-yl)methyl)benzamide] |
